# Source: the supplement of paper PMC10307832
# Columns and labels:
# Assay in all cases: relative viability (nuclei count vs DMSO), 5 days (fraction); higher = more cells survive
# [1] = system: NCI-H650
# In short: (§1)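 Nuclei were stained with Hoechst during a one-step fixation (final 0.05% Triton X-100, 1% formaldehyde, 1 ug/ml Hoechst) carried out 5 days after dosing, then counted on 4× images. The cells, lung cancer lines in 1536-well plates, had been dosed by pin tool the day after seeding with one drug alone or a fixed anchor-drug dose plus five library-drug doses (not always all listed) in √10 steps. Relative viability is the nuclei count in treated wells divided by that in vehicle wells, and each value is the median of duplicate plates.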
# [2] = system: NCI-H358
# In short: as §1
# [3] = system: NCI-H596
# In short: as §1
# [4] = system: LXF-289
# In short: as §1
# [5] = system: HCC-15
# In short: as §1
# [6] = system: PC-3 [JPC-3]
# In short: as §1
# [7] = system: UMC-11
# In short: as §1
# [8] = system: NCI-H1666
# In short: as §1
# [9] = system: LU99A
# In short: as §1
# [10] = system: LC-2-ad
# In short: as §1
# [11] = system: BEN
# In short: as §1
# [12] = system: SK-MES-1
# In short: as §1
# [13] = system: NCI-H1651
# In short: as §1
# [14] = system: HCC-78
# In short: as §1
# [15] = system: NCI-H1944
# In short: as §1
# [16] = system: NCI-H322M
# In short: as §1
# [17] = system: LK-2
# In short: as §1
# [18] = system: H3255
# In short: as §1
# [19] = system: NCI-H661
# In short: as §1
# [20] = system: NCI-H838
# In short: as §1
# [21] = system: NCI-H2087
# In short: as §1
# [22] = system: LCLC-97TM1
# In short: as §1
smiles,measurement,setting,value
C[C@@H]1CN(CC(=O)Nc2ccc3c(c2)Cc2cccc(-c4cc(=O)cc(N5CCOCC5)o4)c2S3)C[C@H](C)O1 + CS(=O)(=O)CCNCc1ccc(-c2ccc3ncnc(Nc4ccc(OCc5cccc(F)c5)c(Cl)c4)c3c2)o1 [Lapatinib] (partner 2 µM),relative viability,[1]; first compound 0.04 µM,0.583
same,relative viability,[1]; first compound 0.1265 µM,0.852
same,relative viability,[1]; first compound 0.4 µM,0.857
same,relative viability,[1]; first compound 4 µM,0.697
same,relative viability,[2]; first compound 0.04 µM,0.356
same,relative viability,[2]; first compound 0.1265 µM,0.427
same,relative viability,[2]; first compound 0.4 µM,0.39
same,relative viability,[2]; first compound 4 µM,0.417
same,relative viability,[3]; first compound 0.04 µM,1.07
same,relative viability,[3]; first compound 0.1265 µM,1.24
same,relative viability,[3]; first compound 0.4 µM,1.06
same,relative viability,[3]; first compound 4 µM,1.03
same,relative viability,[4]; first compound 0.04 µM,0.879
same,relative viability,[4]; first compound 0.1265 µM,0.962
same,relative viability,[4]; first compound 0.4 µM,0.904
same,relative viability,[4]; first compound 4 µM,0.835
same,relative viability,[5]; first compound 0.04 µM,0.866
same,relative viability,[5]; first compound 0.1265 µM,0.736
same,relative viability,[5]; first compound 0.4 µM,0.929
same,relative viability,[5]; first compound 4 µM,0.763
same,relative viability,[6]; first compound 0.04 µM,0.512
same,relative viability,[6]; first compound 0.1265 µM,0.394
same,relative viability,[6]; first compound 0.4 µM,0.52
same,relative viability,[6]; first compound 4 µM,0.454
same,relative viability,[7]; first compound 0.04 µM,0.984
same,relative viability,[7]; first compound 0.1265 µM,0.927
same,relative viability,[7]; first compound 0.4 µM,1.1
same,relative viability,[7]; first compound 4 µM,0.694
same,relative viability,[8]; first compound 0.04 µM,0.745
same,relative viability,[8]; first compound 0.1265 µM,0.667
same,relative viability,[8]; first compound 0.4 µM,0.665
same,relative viability,[8]; first compound 4 µM,0.579
same,relative viability,[9]; first compound 0.04 µM,0.783
same,relative viability,[9]; first compound 0.1265 µM,1.15
same,relative viability,[9]; first compound 0.4 µM,1.08
same,relative viability,[9]; first compound 4 µM,1.04
same,relative viability,[10]; first compound 0.04 µM,1
same,relative viability,[10]; first compound 0.1265 µM,0.928
same,relative viability,[10]; first compound 0.4 µM,0.672
same,relative viability,[10]; first compound 4 µM,0.875
same,relative viability,[11]; first compound 0.04 µM,0.609
same,relative viability,[11]; first compound 0.1265 µM,0.666
same,relative viability,[11]; first compound 0.4 µM,0.738
same,relative viability,[11]; first compound 4 µM,0.745
same,relative viability,[12]; first compound 0.04 µM,0.463
same,relative viability,[12]; first compound 0.1265 µM,0.53
same,relative viability,[12]; first compound 0.4 µM,0.429
same,relative viability,[12]; first compound 4 µM,0.409
same,relative viability,[13]; first compound 0.04 µM,0.82
same,relative viability,[13]; first compound 0.1265 µM,0.889
same,relative viability,[13]; first compound 0.4 µM,0.78
same,relative viability,[13]; first compound 4 µM,0.795
same,relative viability,[14]; first compound 0.04 µM,0.64
same,relative viability,[14]; first compound 0.1265 µM,0.705
same,relative viability,[14]; first compound 0.4 µM,0.702
same,relative viability,[14]; first compound 4 µM,0.703
same,relative viability,[15]; first compound 0.1265 µM,0.803
same,relative viability,[15]; first compound 0.4 µM,0.977
same,relative viability,[15]; first compound 4 µM,0.876
same,relative viability,[16]; first compound 0.04 µM,0.39
same,relative viability,[16]; first compound 0.1265 µM,0.587
same,relative viability,[16]; first compound 0.4 µM,0.626
same,relative viability,[16]; first compound 4 µM,0.535
same,relative viability,[17]; first compound 0.1265 µM,0.938
same,relative viability,[17]; first compound 0.4 µM,0.936
same,relative viability,[17]; first compound 4 µM,0.948
same,relative viability,[18]; first compound 0.04 µM,0.221
same,relative viability,[18]; first compound 0.1265 µM,0.242
same,relative viability,[18]; first compound 0.4 µM,0.233
same,relative viability,[18]; first compound 4 µM,0.214
same,relative viability,[19]; first compound 0.1265 µM,0.488
same,relative viability,[19]; first compound 0.4 µM,0.479
same,relative viability,[19]; first compound 4 µM,0.411
same,relative viability,[20]; first compound 0.04 µM,0.911
same,relative viability,[20]; first compound 0.1265 µM,0.911
same,relative viability,[20]; first compound 0.4 µM,0.883
same,relative viability,[20]; first compound 4 µM,0.781
same,relative viability,[21]; first compound 0.04 µM,1.06
same,relative viability,[21]; first compound 0.1265 µM,1.01
same,relative viability,[21]; first compound 0.4 µM,1.13
same,relative viability,[21]; first compound 4 µM,0.798
same,relative viability,[22]; first compound 0.1265 µM,0.851
same,relative viability,[22]; first compound 0.4 µM,0.867
same,relative viability,[22]; first compound 4 µM,0.858
